Measured values reported in PubChem BioAssay (NCI).
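A five-concentration, 48-hour dose response in 96-well plates underlies each endpoint, interpolated linearly between surrounding concentrations. The concentration for 50% growth inhibition is given as GI50. At the TGI there is no net growth.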

What was measured:
Assay in all cases: inhibition of tumour cell growth, NCI panel, 48 h
A549 NSCLC = tested on: A549 NSCLC
EKVX NSCLC = tested on: EKVX NSCLC
IGROV1 ovarian = tested on: IGROV1 ovarian
M14 melanoma = tested on: M14 melanoma
MDA-MB-435 = tested on: MDA-MB-435
NCI-H522 lung = tested on: NCI-H522 lung
OVCAR-3 ovarian = tested on: OVCAR-3 ovarian
SK-MEL-2 melanoma = tested on: SK-MEL-2 melanoma
SK-MEL-5 melanoma = tested on: SK-MEL-5 melanoma
U251 CNS = tested on: U251 CNS

SMILES	TGI (A549 NSCLC) [µM]	TGI (EKVX NSCLC) [µM]	TGI (IGROV1 ovarian) [µM]	TGI (M14 melanoma) [µM]	TGI (MDA-MB-435) [µM]	TGI (NCI-H522 lung) [µM]	TGI (OVCAR-3 ovarian) [µM]	TGI (SK-MEL-2 melanoma) [µM]	TGI (SK-MEL-5 melanoma) [µM]	TGI (U251 CNS) [µM]	GI50 (A549 NSCLC) [µM]	GI50 (EKVX NSCLC) [µM]	GI50 (IGROV1 ovarian) [µM]	GI50 (M14 melanoma) [µM]	GI50 (MDA-MB-435) [µM]	GI50 (NCI-H522 lung) [µM]	GI50 (OVCAR-3 ovarian) [µM]	GI50 (SK-MEL-2 melanoma) [µM]	GI50 (SK-MEL-5 melanoma) [µM]	GI50 (U251 CNS) [µM]
O=C1CC(n2cccc2)c2c(Br)sc(Br)c21 (stereo not given)	61.8	33.3	32.7	30.2	29.3	3.27	33.2	29.1	29.6	28.4										
Cc1cc2cc3c(cc2c(-c2ccc(N)cc2)n1)OCO3	> 100	> 100	59.5	> 100	> 100	> 100	67.9	> 100	71.9	> 100										
NS(=O)(=O)c1ccc(NNc2c3ccccc3nc3c(C(=O)Nc4ccc(S(=O)(=O)Nc5ncccn5)cc4)cccc23)cc1	> 25	> 25	> 25	> 25	> 25	> 25	> 25	> 25	> 25	> 25										
CCCNc1ncnc2[nH]ncc12	> 100	> 100	> 100	> 100	> 100	> 100	> 100	> 100	> 100	> 100										
O=c1cc(NCc2ccncc2)[nH]c(=O)[nH]1	> 100	> 100	> 100	> 100	> 100	> 100	> 100	> 100	> 100	> 100										
CCOC(=O)C1CCCCN1CCc1c[nH]c2ccccc12 (stereo not given)	> 100	> 100	> 100	> 100	> 100	> 100	> 100	> 100	> 100	> 100										
C(/Cc1ccc2c(c1)OCO2)=N\NC1=NCCCN1	> 100	> 100	> 100	> 100	> 100	> 100	> 100	> 100	56.4	> 100										
Cc1ccc(-c2n[nH]c(=O)n2/N=C\c2ccccc2)cc1	> 100	> 100	> 100	> 100	> 100	> 100	> 100	99.8	> 100	> 100										
COc1c(C)c(C/C=C(\C)CC/C=C(\C)CCC=C(C)C)c(OC)c(OC)c1OC	> 100	> 100	> 100	> 100	> 100	> 100	> 100	> 100	> 100	> 100										
O=C1c2ccccc2-c2[nH]c3cn[nH]c(=O)c3c21	> 100	> 100	> 100	> 100	> 100	50.9	> 100	> 100	> 100	> 100										
N#Cc1nc(C#N)n(C(=O)c2ccccc2)c1NC(=O)c1ccccc1	> 100	> 100	> 100	> 100	> 100	> 100	> 100	> 100	> 100	> 100										
O=[N+]([O-])c1ccc(C(Nc2ccccc2)c2ccc3cccnc3c2O)cc1 (stereo not given)	> 100	> 54.6	> 100	> 74.4	> 78	28.6	33.6	> 100	22.3	25.2										
Cc1ccc(/C(O)=C/c2nc3ccc([N+](=O)[O-])cc3nc2/C=C(\O)c2ccc(C)cc2)cc1	> 100	> 100	> 100	> 100	> 100	> 100	> 100	> 100	> 100	> 100										
CCOP(=O)(OCC)/C(C#N)=C/c1cccn1Cc1ccccc1	> 100	> 100	> 100	> 100	42	86.8	> 100	47.8	32.5	57.9										
CC(C)OC1OC(CO)C(O)CC1n1cc(F)c(=O)[nH]c1=O (stereo not given)	> 100	> 100	> 100	> 100	> 100	37.8	> 100	> 100	> 100	> 100										
S=C(NCc1ccccc1)N/N=C/c1ccccn1	> 100	> 100	> 62.8	9.32	> 100	24.5	> 100	> 100	> 93.6	23.9										
O=C(/C=C/c1cccs1)c1ccccc1Cl	1.4	30.8	> 65	> 55.9	25.5	15	28.2	43.6	32.5	27.7										
CC(C)(C)OC(=O)n1cc(C2CN(O)C(=O)C23CCC(=O)N3Cc2ccccc2)c2ccccc21 (stereo not given)	> 100	47.7	48.5	> 100	> 100	31.7	> 100	35.7	> 100	> 100										
NCCOCC(N)C(=O)O (stereo not given)	> 100	> 100	> 100	> 100	> 100	> 100	> 100	> 100	> 100	> 100										
CN1C(=O)C(O)CC1c1cccc(C(F)(F)F)c1 (stereo not given)	> 100	> 100	> 100	> 100	> 100	> 100	> 100	> 100	> 100	> 100										
COC(=O)[C@@H]1CN(C(=O)c2ccccc2)C(=O)N1C(=O)OCc1ccccc1	> 100	> 100	> 100	> 100	> 100	> 100	> 100	> 100	> 100	> 100										
CC1CC/C(=C\c2ccc(Cl)cc2)c2nc(N)c(C#N)c(-c3ccc(Cl)cc3)c21 (stereo not given)	> 100	> 100	> 100	> 100	> 100	> 100	> 100	> 100	> 100	> 100										
c1ccc(-c2nnn(CCN3CCCCC3)n2)cc1	> 100	> 100	> 100	> 100	> 100	> 100	> 100	> 100	> 100	> 100										
CS(=O)(=O)NC12CCC(c3ccccc31)c1ccccc12	> 100	> 100	> 100	> 100	> 100	> 100	> 100	> 100	> 100	> 100										
COc1ccc(-c2cc(C(O)C3CCCCN3)c3ccccc3n2)cc1 (stereo not given)	27.8	20.2	22.4	4.61	15.1	22.4	27.8	18.5	17.2	14.5										
N/C(=N\Nc1ccc(S(N)(=O)=O)cc1)c1cnccn1	> 100	> 100	> 100	> 100	> 100	> 100	> 100	> 100	> 100	> 100										
CCC(CC(C)C)Nc1ccc(NC(CC)CC(C)C)cc1 (stereo not given)	65.6	37.6	78.7	34.7	40	15.1	26	27.4	28.2	26.6	24.8	16.7	27.1	16.8	18.2	3.82	13.3	12.9	15	13
CC(C)C1(O)C(=O)N(c2c(F)c(F)c(F)c(F)c2F)C(=S)N1CCSc1ccccc1 (stereo not given)	29.2	33.5	31.2	31.9	32.8	30.5	30.1	32.5	32.7	32.1										
